Laboratory results: PubChem BioAssay AID330 (DTP/NCI, 2004)
Several values for one entry are separate records, joined by “and”; a condition that tells them apart may be missing. Equal entries are not always repeated. Toxic doses and inconclusive results are not listed.

System: P388 leukemia ip, CD2F1 mice, survival T/C
Assay: NCI In Vivo Anticancer Drug Screen. Data for tumor model P388 Leukemia (intraperitoneal) in CD2F1 (CDF1) mice
Conditions: endpoint: median survival time, higher = longer survival
Procedure, shortened: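 Mice carrying the transplanted tumor received test compound or vehicle. Survival was recorded in each group, and the value is the treated-group measurement divided by that of the vehicle-treated control group.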

[1] = dose: 50.0 mg/kg/injection, schedule: Q01DX005 (ip), vehicle: saline with Tween-80
[2] = dose: 100.0 mg/kg/injection, schedule: Q01DX005 (ip), vehicle: saline with Tween-80
[3] = dose: 200.0 mg/kg/injection, schedule: Q01DX005 (ip), vehicle: saline with Tween-80
[4] = dose: 50.0 mg/kg/injection, schedule: Q01DX005 (ip), vehicle: Klucel (hydroxypropylcellulose) (HPC)
[5] = dose: 100.0 mg/kg/injection, schedule: Q01DX005 (ip), vehicle: Klucel (hydroxypropylcellulose) (HPC)
[6] = dose: 200.0 mg/kg/injection, schedule: Q01DX005 (ip), vehicle: Klucel (hydroxypropylcellulose) (HPC)
[7] = dose: 50.0 mg/kg/injection, schedule: Q01DX009 (ip), vehicle: saline with Tween-80
[8] = dose: 100.0 mg/kg/injection, schedule: Q01DX009 (ip), vehicle: saline with Tween-80
[9] = dose: 60.0 mg/kg/injection, schedule: Q01DX005 (ip), vehicle: saline with Tween-80
[10] = dose: 120.0 mg/kg/injection, schedule: Q01DX005 (ip), vehicle: saline with Tween-80
[11] = dose: 50.0 mg/kg/injection, schedule: Q01DX009 (ip), vehicle: saline
[12] = dose: 100.0 mg/kg/injection, schedule: Q01DX009 (ip), vehicle: saline
[13] = dose: 200.0 mg/kg/injection, schedule: Q01DX009 (ip), vehicle: saline
[14] = dose: 200.0 mg/kg/injection, schedule: Q01DX009 (ip), vehicle: saline with Tween-80
[15] = dose: 12.5 mg/kg/injection, schedule: Q01DX009 (ip), vehicle: saline
[16] = dose: 240.0 mg/kg/injection, schedule: Q01DX005 (ip), vehicle: saline with Tween-80
[17] = dose: 100.0 mg/kg/injection, schedule: Q04DX003 (ip), vehicle: Klucel (hydroxypropylcellulose) (HPC)
[18] = dose: 200.0 mg/kg/injection, schedule: Q04DX003 (ip), vehicle: Klucel (hydroxypropylcellulose) (HPC)

## CCOC(=N)N1[C@@H]2CCCC[C@@H]21
dose: 100.0 mg/kg/injection, schedule: Q04DX002 (ip), vehicle: saline
  T/C: 101 % of control
dose: 200.0 mg/kg/injection, schedule: Q04DX002 (ip), vehicle: saline
  T/C: 109 % of control
dose: 400.0 mg/kg/injection, schedule: Q04DX002 (ip), vehicle: saline
  T/C: 120 % of control

## CN(C)C1=NS(=O)(=O)c2ccccc21
[1]
  T/C: 100 % of control
[2]
  T/C: 106 % of control
[3]
  T/C: 93 % of control

## CN1C(=O)[C@@H]2N(N(C)C1=O)[C@@]1(Br)C(=O)NC(=O)[C@@]21Br
dose: 60.0 mg/kg/injection, schedule: Q01DX005 (ip), vehicle: Klucel (hydroxypropylcellulose) (HPC)
  T/C: 97 % of control
dose: 120.0 mg/kg/injection, schedule: Q01DX005 (ip), vehicle: Klucel (hydroxypropylcellulose) (HPC)
  T/C: 100 % of control
dose: 240.0 mg/kg/injection, schedule: Q01DX005 (ip), vehicle: Klucel (hydroxypropylcellulose) (HPC)
  T/C: 91 % of control

## COC(=O)C1=CO[C@@H](OC2OC(CO)C(O)C(O)C2O)[C@H]2[C@@H]1C=C[C@@]21C=C([C@@H](C)O)C(=O)O1 (stereo partly drawn)
dose: 1.63 mg/kg/injection, schedule: Q01DX005 (ip), vehicle: Klucel (hydroxypropylcellulose) (HPC)
  T/C: 99 % of control
dose: 3.25 mg/kg/injection, schedule: Q01DX005 (ip), vehicle: Klucel (hydroxypropylcellulose) (HPC)
  T/C: 101 % of control
dose: 6.5 mg/kg/injection, schedule: Q01DX005 (ip), vehicle: Klucel (hydroxypropylcellulose) (HPC)
  T/C: 101 % of control
dose: 13.0 mg/kg/injection, schedule: Q01DX005 (ip), vehicle: Klucel (hydroxypropylcellulose) (HPC)
  T/C: 95 % of control

## CC1(C)CC(=O)C(C(c2ccc3c(c2)OCO3)C2C(=O)CC(C)(C)CC2=O)C(=O)C1
[4]
  T/C: 91 % of control
[5]
  T/C: 101 % of control
[6]
  T/C: 104 % of control

## COc1cc2c(cc1OC)C(=O)C(Br)CC2 (stereo not drawn)
[7]
  T/C: 104 % of control
[8]
  T/C: 113 % of control

## CCc1cccc(C)c1NC(=O)C(=O)C(C#N)c1ccc(CC#N)cc1 (stereo not drawn)
[9]
  T/C: 101 % of control
[10]
  T/C: 100 % of control

## COc1cc(C2CC(C)(O)Oc3cc4c(cc32)OCO4)cc(OC)c1OC (stereo not drawn)
dose: 30.0 mg/kg/injection, schedule: Q01DX005 (ip), vehicle: saline with Tween-80
  T/C: 104 % of control
[9]
  T/C: 105 % of control and 108 % of control

## C=Cc1c(C)c2[nH]c1=CC1=NC(=CC3=NC(=CC4=C(C)/C(=C\NO)C(=N4)C=2)C(C)=C3CCC(=O)OC)C(CCC(=O)OC)=C1C
[4]
  T/C: 95 % of control
[5]
  T/C: 99 % of control
[6]
  T/C: 99 % of control

## C/C1=N/N=C(N)\N=C(\C)CC1
[11]
  T/C: 90 % of control
[12]
  T/C: 102 % of control
[13]
  T/C: 101 % of control

## C/C(=N\NC(=S)N1CCN(c2ccccn2)CC1)c1ccccn1
dose: 12.5 mg/kg/injection, schedule: Q01DX005 (ip), vehicle: water
  T/C: 103 % of control
dose: 25.0 mg/kg/injection, schedule: Q01DX005 (ip), vehicle: water
  T/C: 108 % of control

## O=C(NC1CC(c2ccccc2)(c2ccccc2)OC1=O)c1ccccc1 (stereo not drawn)
[7]
  T/C: 100 % of control
[8]
  T/C: 86 % of control

## CN(c1ccccc1)C1C=C(c2ccccc2)OC(=O)C1(Cl)Cl (stereo not drawn)
[7]
  T/C: 92 % of control
[8]
  T/C: 95 % of control
[14]
  T/C: 98 % of control

## O=C1CCCCC=C1Cl
[11]
  T/C: 96 % of control
[12]
  T/C: 98 % of control
[13]
  T/C: 108 % of control

## CCCCCCCCCCC[CH2][Sn]([CH3])([CH3])[O]C(C)=O
[15]
  T/C: 99 % of control
dose: 25.0 mg/kg/injection, schedule: Q01DX009 (ip), vehicle: saline
  T/C: 99 % of control
[11]
  T/C: 94 % of control

## O=C(O)C(Oc1nc(=S)[nH]c(=S)[nH]1)(c1ccc(Cl)cc1)c1ccc(Cl)cc1
[9]
  T/C: 103 % of control
[10]
  T/C: 101 % of control
[16]
  T/C: 103 % of control

## O=C1C2(Cl)C3(Cl)C4(Cl)C(Cl)(Cl)C5(Cl)[C@]3(Cl)C1(Cl)[C@]5(Cl)C24Cl (stereo partly drawn)
dose: 12.5 mg/kg/injection, schedule: Q01DX009 (ip), vehicle: Klucel (hydroxypropylcellulose) (HPC)
  T/C: 110 % of control
dose: 12.5 mg/kg/injection, schedule: Q01DX009 (ip), vehicle: saline with Tween-80
  T/C: 94 % of control
dose: 25.0 mg/kg/injection, schedule: Q01DX009 (ip), vehicle: Klucel (hydroxypropylcellulose) (HPC)
  T/C: 112 % of control
dose: 25.0 mg/kg/injection, schedule: Q01DX009 (ip), vehicle: saline with Tween-80
  T/C: 87 % of control

## CC(C)=CC[P+](CCCC[P+](CC=C(C)C)(c1ccccc1)c1ccccc1)(c1ccccc1)c1ccccc1
dose: 1.56 mg/kg/injection, schedule: Q04DX003 (ip), vehicle: saline
  T/C: 100 % of control
dose: 3.12 mg/kg/injection, schedule: Q04DX003 (ip), vehicle: saline
  T/C: 101 % of control

## O=C(CCc1ccc(O)c(O)c1)c1ccc(O)c(O)c1O
dose: 4.0 mg/kg/injection, schedule: Q01DX009 (ip), vehicle: saline
  T/C: 111 % of control
dose: 8.0 mg/kg/injection, schedule: Q01DX009 (ip), vehicle: saline
  T/C: 104 % of control
dose: 16.0 mg/kg/injection, schedule: Q01DX009 (ip), vehicle: saline
  T/C: 102 % of control
dose: 32.0 mg/kg/injection, schedule: Q01DX009 (ip), vehicle: saline
  T/C: 114 % of control

## Cn1c(=O)c2c(N=NC(N)=S)c(O)[nH]c2n(C)c1=O
[17]
  T/C: 100 % of control
[18]
  T/C: 108 % of control
dose: 400.0 mg/kg/injection, schedule: Q04DX003 (ip), vehicle: Klucel (hydroxypropylcellulose) (HPC)
  T/C: 96 % of control

## CC(=N/NC(=S)NCC(C)C)/C(C)=N\Nc1ccc(Cl)cc1
[11]
  T/C: 97 % of control
[12]
  T/C: 106 % of control
[13]
  T/C: 99 % of control

## O=C(/C=C/c1cccc(Cl)c1)c1ccccc1
dose: 50.0 mg/kg/injection, schedule: Q01DX009 (ip), vehicle: Klucel (hydroxypropylcellulose) (HPC)
  T/C: 102 % of control
dose: 100.0 mg/kg/injection, schedule: Q01DX009 (ip), vehicle: Klucel (hydroxypropylcellulose) (HPC)
  T/C: 104 % of control
dose: 150.0 mg/kg/injection, schedule: Q01DX009 (ip), vehicle: Klucel (hydroxypropylcellulose) (HPC)
  T/C: 110 % of control
dose: 200.0 mg/kg/injection, schedule: Q01DX009 (ip), vehicle: Klucel (hydroxypropylcellulose) (HPC)
  T/C: 122 % of control

## C=C1CC(O)C2C(C[Se]c3ccccc3)C(=O)O[C@@H]2C2C(=C)[C@@H](O)CC12 (stereo partly drawn)
[9]
  T/C: 96 % of control
[10]
  T/C: 100 % of control
[16]
  T/C: 99 % of control

## Cc1ccc(=O)c2ccsc2c1
[17]
  T/C: 105 % of control
[18]
  T/C: 94 % of control

## ClCCCCN(CCN(CCCCCl)c1ccccc1)c1ccccc1
dose: 12.5 mg/kg/injection, schedule: Q04DX002 (ip), vehicle: saline
  T/C: 100 % of control
dose: 25.0 mg/kg/injection, schedule: Q04DX002 (ip), vehicle: saline
  T/C: 101 % of control

## C/C(C(=O)NC1CC1)=C(\C)c1ccc(Br)cc1
dose: 50.0 mg/kg/injection, schedule: Q04DX003 (ip), vehicle: Klucel (hydroxypropylcellulose) (HPC)
  T/C: 99 % of control
[17]
  T/C: 99 % of control
[18]
  T/C: 98 % of control

## Cc1cc2nnc(C)n2c(C)n1
dose: 100.0 mg/kg/injection, schedule: Q04DX003 (ip), vehicle: saline
  T/C: 95 % of control
dose: 200.0 mg/kg/injection, schedule: Q04DX003 (ip), vehicle: saline
  T/C: 96 % of control
dose: 400.0 mg/kg/injection, schedule: Q04DX003 (ip), vehicle: saline
  T/C: 93 % of control

## CC(=O)Nc1ccc(OCCOCCOc2ccc(NC(C)=O)cc2)cc1
[7]
  T/C: 92 % of control
[8]
  T/C: 94 % of control
[14]
  T/C: 91 % of control

## C/C(=N/NC(=S)NNC(=S)N(C)c1ccccc1)c1nccc2ccccc12
[1]
  T/C: 102 % of control
[2]
  T/C: 101 % of control
[3]
  T/C: 104 % of control

## COC1=CC(=O)N/C1=C(\OC)c1ccccc1
[9]
  T/C: 90 % of control
[10]
  T/C: 93 % of control
[16]
  T/C: 99 % of control

## C/C(=N\N=C(N)N)c1ccccc1
dose: 6.25 mg/kg/injection, schedule: Q01DX009 (ip), vehicle: saline
  T/C: 110 % of control
[15]
  T/C: 101 % of control
